Assay results: US5786355A, “4,6-diarylpyrimidine derivatives and salts thereof” (Taiho Pharmaceutical Co., Ltd., priority 1995, dated 1998)

Tests used:
[1] = J. INDIAN CHEM. SOC., 70, 266-267(1993); cited from earlier work
[2] = test system: HUVEC (human umbilical vein endothelial cell); assay: HUVEC growth inhibition (3H-thymidine uptake); assay type: cell-based; conditions: 3000 cells per well, RPMI-1640 with ECGS, EGF and 2% serum, 48 hours + 17 hours with 3H-thymidine, control as 100%, read-out: IC50 (concentration showing a 50% growth inhibitory activity)
Protocol: To a 96-well microplate, HUVEC (human umbilical vein endothelial cell; product of Kurabo Industries Ltd.) was added in an amount of 3000 cells per well, followed by culturing in 200 μl of RPMI-1640 medium (Nissui Pharmaceutical Co., Ltd.) containing 10 μg/ml of ECGS (Endothelial Cell Growth Supplement; Collaborative Co., Ltd.), 3 ng/ml of EGF ([…]; product of Genzyme Co., Ltd.) and 2% fatal calf serum at 37° C. for 48 hours using 5% CO2. To each well, 0.1 μCi (3.7 KBq) of ^3 H-Tymidine was added, followed by culturing for 17 hours. Then, the cells were collected on a glass filter and washed with 5% trichloroacetic acid and ethanol. The radioactivity taken in was measured by a β-plate (Pharmacia Laboratories, Inc.). The concentration showing a 50% growth inhibitory activity (IC50) was calculated with a control as 100%.

SMILES	antibacterial activity [1]	IC50 [2] [µM]
COc1ccc(-c2cc(-c3ccc(OC)c(OC)c3)nc(N)n2)c(OC)c1 [2-amino-4-(2,4-dimethoxyphenyl)-6-(3,4-dimethoxyphenyl)pyrimidine]	no antibacterial activity	–
COc1cc(OC)c(-c2cc(-c3cc(OC)c(OC)cc3OC)nc(N(C)C)n2)cc1OC [Compound 2]	–	0.22
COc1cc(OC)c(-c2cc(-c3cc(OC)c(OC)cc3OC)nc(N)n2)cc1OC [Compound 3]	–	0.25
COc1cc(OC)c(-c2cc(-c3ccc(OCCN(C)C)cc3)nc(N(C)C)n2)cc1OC [Compound 8]	–	1.1
CCN(CC)c1nc(-c2cc(OC)c(OC)cc2OC)cc(-c2cc(OC)c(OC)cc2OC)n1 [Compound 9]	–	0.36
CCN(CC)c1nc(-c2ccc(OC)cc2OC)cc(-c2cc(OC)c(OC)cc2OC)n1 [Compound 17]	–	0.53
CCN(CC)c1nc(-c2cc(OC)c(OC)c(OC)c2)cc(-c2cc(OC)c(OC)cc2OC)n1 [Compound 20, 2-diethylamino-4-(3,4,5-trimethoxyphenyl)-6-(2,4,5-trimethoxyphenyl)pyrimidine]	–	0.53
COc1cc(OC)c(-c2cc(-c3cc(OC)c(O)c(OC)c3)nc(N(C)C)n2)cc1OC [Compound 24]	–	0.21
COc1cc(NS(C)(=O)=O)c(-c2cc(-c3cc(OC)c(OC)cc3OC)nc(N(C)C)n2)cc1OC [Compound 27]	–	0.068
COc1cc(OC)c(-c2cc(-c3nccs3)nc(N(C)C)n2)cc1OC [Compound 30]	–	0.7
COc1cc(OC)c(-c2cc(-c3cc(OC)c(OC)cc3OC)nc(NS(C)(=O)=O)n2)cc1OC [Compound 31]	–	0.52
CCN(CC)c1nc(-c2ccc(OCCN3CCCCC3)cc2)cc(-c2cc(OC)c(OC)cc2OC)n1 [Compound 41]	–	1.7
CCN(CC)c1nc(-c2ccc(OP(=O)(O)O)cc2)cc(-c2cc(OC)c(OC)cc2OC)n1 [Compound 43]	–	0.33
